Experiments:
Assay in all cases: Test B pre-/postemergence plant response
Assay type in all cases: in vivo
[1] = tested on: velvetleaf (Abutilon theophrasti); conditions: for Velvetleaf plant response rating (0 to 100 scale): 0 is no effect, 13 to 15 days
Summary of the method: (§1)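 Visual ratings on a 0–100 scale (100 = complete control) were made versus untreated controls 13–15 days after treatment in a greenhouse. Compounds in surfactant-containing non-phytotoxic solvent were applied preemergence to seeds in loam–sand blend or postemergence to 1- to 4-leaf plants (2–18 cm).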

[2] = tested on: pigweed (Amaranthus retroflexus); conditions: for Pigweed plant response rating (0 to 100 scale): 0 is no effect, 13 to 15 days
Summary of the method: as §1

[3] = tested on: woolly cupgrass (Eriochloa villosa); conditions: for Cupgrass, Woolly plant response rating (0 to 100 scale): 0 is no effect, 13 to 15 days
Summary of the method: as §1

[4] = tested on: yellow nutsedge (Cyperus esculentus); conditions: for Nutsedge, Yellow plant response rating (0 to 100 scale): 0 is no effect, 13 to 15 days
Summary of the method: as §1

[5] = tested on: large crabgrass (Digitaria sanguinalis); conditions: for Crabgrass, Large plant response rating (0 to 100 scale): 0 is no effect, 13 to 15 days
Summary of the method: as §1

[6] = tested on: wheat (Triticum aestivum); conditions: for Wheat plant response rating (0 to 100 scale): 0 is no effect, 13 to 15 days
Summary of the method: as §1

[7] = tested on: ragweed (common ragweed, Ambrosia elatior); conditions: for Ragweed plant response rating (0 to 100 scale): 0 is no effect, 13 to 15 days
Summary of the method: as §1

[8] = tested on: Italian ryegrass (Lolium multiflorum); conditions: for Ryegrass, Italian plant response rating (0 to 100 scale): 0 is no effect, 13 to 15 days
Summary of the method: as §1

[9] = tested on: lambsquarters (Chenopodium album); conditions: for Lambsquarters plant response rating (0 to 100 scale): 0 is no effect, 13 to 15 days
Summary of the method: as §1

[10] = tested on: downy bromegrass (Bromus tectorum); conditions: for Bromegrass, Downy plant response rating (0 to 100 scale): 0 is no effect, 13 to 15 days
Summary of the method: as §1

[11] = tested on: goosegrass (Eleusine indica); conditions: for Goosegrass plant response rating (0 to 100 scale): 0 is no effect, 13 to 15 days
Summary of the method: as §1

[12] = tested on: green foxtail (Setaria viridis); conditions: for Foxtail, Green plant response rating (0 to 100 scale): 0 is no effect, 13 to 15 days
Summary of the method: as §1

[13] = tested on: Surinam grass (Brachiaria decumbens); conditions: for Surinam Grass plant response rating (0 to 100 scale): 0 is no effect, 13 to 15 days
Summary of the method: as §1

[14] = 31 g ai/ha, postemergence, scale 0 to 100, 0 is no effect, 100 is complete control
[15] = 62 g ai/ha, postemergence, 100 is complete control
[16] = Postemergence, 125 g ai/ha, visual rating after 13 to 15 days, scale 0 (no effect) to 100 (complete control)
[17] = Postemergence, 250 g ai/ha, scale 0 to 100 (0 no effect, 100 complete control)
[18] = Preemergence, 31 g ai/ha, scale 0 to 100 (0 no effect, 100 complete control)
[19] = Preemergence, 62 g ai/ha, scale 0 to 100 (0 no effect, 100 complete control)
[20] = Preemergence, 125 g ai/ha, scale 0 to 100, 0 no effect, 100 complete control
[21] = 250 g ai/ha, Preemergence, 0 to 100 scale

O=C1CCCC(O)=C1C(=O)c1cnc(-c2ccccc2Br)n(-c2ccccc2)c1=O [Compound 71]
Plant response rating, Velvetleaf [1, 14]: 75 | Velvetleaf plant response rating (0 to 100 scale) [1, 15]: 85 | Plant response rating, Velvetleaf [1, 16]: 90 | Plant response rating, Velvetleaf [1, 17]: 95 | Plant response rating, Pigweed [2, 14]: 85 | Pigweed plant response rating (0 to 100 scale) [2, 15]: 85 | Plant response rating, Pigweed [2, 16]: 98 | Plant response rating, Pigweed [2, 17]: 100 | Plant response rating, Cupgrass, Woolly [3, 14]: 10 | Cupgrass, Woolly plant response rating (0 to 100 scale) [3, 15]: 45 | Plant response rating, Cupgrass, Woolly [3, 16]: 85 | Plant response rating, Cupgrass, Woolly [3, 17]: 100 | Plant response rating, Nutsedge, Yellow [4, 14]: 10 | Nutsedge, Yellow plant response rating (0 to 100 scale) [4, 15]: 10 | Plant response rating, Nutsedge, Yellow [4, 16]: 10 | Plant response rating, Nutsedge, Yellow [4, 17]: 25 | Plant response rating, Crabgrass, Large [5, 14]: 65 | Crabgrass, Large plant response rating (0 to 100 scale) [5, 15]: 75 | Plant response rating, Crabgrass, Large [5, 16]: 80 | Plant response rating, Crabgrass, Large [5, 17]: 95 | Plant response rating, Wheat [6, 14]: 0 | Wheat plant response rating (0 to 100 scale) [6, 15]: 0 | Plant response rating, Wheat [6, 16]: 0 | Plant response rating, Wheat [6, 17]: 5 | Plant response rating, Ragweed [7, 14]: 75 | Ragweed plant response rating (0 to 100 scale) [7, 15]: 80 | Plant response rating, Ragweed [7, 16]: 80 | Plant response rating, Ragweed [7, 17]: 95 | Plant response rating, Ryegrass, Italian [8, 14]: 0 | Ryegrass, Italian plant response rating (0 to 100 scale) [8, 15]: 0 | Plant response rating, Ryegrass, Italian [8, 16]: 0 | Plant response rating, Ryegrass, Italian [8, 17]: 5 | Plant response rating, Lambsquarters [9, 14]: 75 | Lambsquarters plant response rating (0 to 100 scale) [9, 15]: 85 | Plant response rating, Lambsquarters [9, 16]: 90 | Plant response rating, Lambsquarters [9, 17]: 98 | Plant response rating, Bromegrass, Downy [10, 14]: 0 | Bromegrass, Downy plant response rating (0 to 100 scale) [10, 15]: 5 | Plant response rating, Bromegrass, Downy [10, 16]: 10 | Plant response rating, Bromegrass, Downy [10, 17]: 30 | Plant response rating, Goosegrass [11, 14]: 75 | Goosegrass plant response rating (0 to 100 scale) [11, 15]: 75 | Plant response rating, Goosegrass [11, 16]: 90 | Plant response rating, Goosegrass [11, 17]: 90 | Plant response rating, Foxtail, Green [12, 14]: 60 | Foxtail, Green plant response rating (0 to 100 scale) [12, 15]: 60 | Plant response rating, Foxtail, Green [12, 16]: 70 | Plant response rating, Foxtail, Green [12, 17]: 98 | Plant response rating, Surinam Grass [13, 14]: 50 | Surinam Grass plant response rating (0 to 100 scale) [13, 15]: 55 | Plant response rating, Surinam Grass [13, 16]: 65 | Plant response rating, Surinam Grass [13, 17]: 85

CCCc1ncc(C(=O)C2=C(O)CCCC2=O)c(=O)n1-c1ccccc1C [Compound 73]
Plant response rating, Velvetleaf [1, 14]: 95 | Velvetleaf plant response rating (0 to 100 scale) [1, 15]: 100 | Plant response rating, Velvetleaf [1, 16]: 100 | Plant response rating, Velvetleaf [1, 17]: 100 | Plant response rating, Velvetleaf [1, 18]: 100 | Plant response rating, Velvetleaf [1, 19]: 100 | Plant response rating, Velvetleaf [1, 20]: 100 | Plant response rating, Pigweed [2, 14]: 80 | Pigweed plant response rating (0 to 100 scale) [2, 15]: 98 | Plant response rating, Pigweed [2, 16]: 100 | Plant response rating, Pigweed [2, 17]: 100 | Plant response rating, Pigweed [2, 18]: 95 | Plant response rating, Pigweed [2, 19]: 100 | Plant response rating, Pigweed [2, 20]: 100 | Plant response rating, Cupgrass, Woolly [3, 14]: 60 | Cupgrass, Woolly plant response rating (0 to 100 scale) [3, 15]: 65 | Plant response rating, Cupgrass, Woolly [3, 21]: 80 | Plant response rating, Cupgrass, Woolly [3, 16]: 65 | Plant response rating, Cupgrass, Woolly [3, 17]: 65 | Plant response rating, Cupgrass, Woolly [3, 18]: 10 | Plant response rating, Cupgrass, Woolly [3, 19]: 20 | Plant response rating, Cupgrass, Woolly [3, 20]: 55 | Plant response rating, Nutsedge, Yellow [4, 14]: 20 | Nutsedge, Yellow plant response rating (0 to 100 scale) [4, 15]: 20 | Plant response rating, Nutsedge, Yellow [4, 16]: 50 | Plant response rating, Nutsedge, Yellow [4, 17]: 70 | Plant response rating, Nutsedge, Yellow [4, 18]: 20 | Plant response rating, Nutsedge, Yellow [4, 19]: 65 | Plant response rating, Nutsedge, Yellow [4, 20]: 65 | Plant response rating, Crabgrass, Large [5, 14]: 80 | Crabgrass, Large plant response rating (0 to 100 scale) [5, 15]: 85 | Plant response rating, Crabgrass, Large [5, 21]: 100 | Plant response rating, Crabgrass, Large [5, 16]: 90 | Plant response rating, Crabgrass, Large [5, 17]: 95 | Plant response rating, Crabgrass, Large [5, 18]: 85 | Plant response rating, Crabgrass, Large [5, 19]: 98 | Plant response rating, Crabgrass, Large [5, 20]: 100 | Plant response rating, Wheat [6, 14]: 0 | Wheat plant response rating (0 to 100 scale) [6, 15]: 35 | Plant response rating, Wheat [6, 16]: 40 | Plant response rating, Wheat [6, 17]: 50 | Plant response rating, Wheat [6, 18]: 0 | Plant response rating, Wheat [6, 19]: 0 | Plant response rating, Wheat [6, 20]: 5 | Plant response rating, Ragweed [7, 14]: 75 | Ragweed plant response rating (0 to 100 scale) [7, 15]: 80 | Plant response rating, Ragweed [7, 16]: 85 | Plant response rating, Ragweed [7, 17]: 85 | Plant response rating, Ragweed [7, 18]: 45 | Plant response rating, Ragweed [7, 19]: 60 | Plant response rating, Ragweed [7, 20]: 75 | Plant response rating, Ryegrass, Italian [8, 14]: 35 | Ryegrass, Italian plant response rating (0 to 100 scale) [8, 15]: 45 | Plant response rating, Ryegrass, Italian [8, 16]: 60 | Plant response rating, Ryegrass, Italian [8, 17]: 70 | Plant response rating, Ryegrass, Italian [8, 18]: 0 | Plant response rating, Ryegrass, Italian [8, 19]: 0 | Plant response rating, Ryegrass, Italian [8, 20]: 0 | Plant response rating, Lambsquarters [9, 14]: 85 | Lambsquarters plant response rating (0 to 100 scale) [9, 15]: 98 | Plant response rating, Lambsquarters [9, 21]: 100 | Plant response rating, Lambsquarters [9, 16]: 100 | Plant response rating, Lambsquarters [9, 17]: 100 | Plant response rating, Lambsquarters [9, 18]: 95 | Plant response rating, Lambsquarters [9, 19]: 98 | Plant response rating, Lambsquarters [9, 20]: 100 | Plant response rating, Bromegrass, Downy [10, 14]: 20 | Bromegrass, Downy plant response rating (0 to 100 scale) [10, 15]: 45 | Plant response rating, Bromegrass, Downy [10, 21]: 20 | Plant response rating, Bromegrass, Downy [10, 16]: 50 | Plant response rating, Bromegrass, Downy [10, 17]: 60 | Plant response rating, Bromegrass, Downy [10, 18]: 0 | Plant response rating, Bromegrass, Downy [10, 19]: 5 | Plant response rating, Bromegrass, Downy [10, 20]: 5 | Plant response rating, Goosegrass [11, 14]: 65 | Goosegrass plant response rating (0 to 100 scale) [11, 15]: 75 | Plant response rating, Goosegrass [11, 21]: 100 | Plant response rating, Goosegrass [11, 16]: 75 | Plant response rating, Goosegrass [11, 17]: 80 | Plant response rating, Goosegrass [11, 18]: 85 | Plant response rating, Goosegrass [11, 19]: 98 | Plant response rating, Goosegrass [11, 20]: 100 | Plant response rating, Foxtail, Green [12, 14]: 70 | Foxtail, Green plant response rating (0 to 100 scale) [12, 15]: 90 | Plant response rating, Foxtail, Green [12, 21]: 80 | Plant response rating, Foxtail, Green [12, 16]: 90 | Plant response rating, Foxtail, Green [12, 17]: 95 | Plant response rating, Foxtail, Green [12, 18]: 0 | Plant response rating, Foxtail, Green [12, 19]: 30 | Plant response rating, Foxtail, Green [12, 20]: 30 | Plant response rating, Surinam Grass [13, 14]: 80 | Surinam Grass plant response rating (0 to 100 scale) [13, 15]: 85 | Plant response rating, Surinam Grass [13, 16]: 85 | Plant response rating, Surinam Grass [13, 17]: 85 | Plant response rating, Surinam Grass [13, 18]: 85 | Plant response rating, Surinam Grass [13, 19]: 100 | Plant response rating, Surinam Grass [13, 20]: 100

Source: patent US8952024B2, “Herbicidal pyrimidone derivatives” (E I du Pont de Nemours and Company, priority 2009, dated 2015)
